Columns and labels:
[1] = target: GDP-bound HRAS wild-type protein (Homo sapiens, UniProt P01112); test: Binding to HRAS by surface plasmon resonance (SPR), Single Cycle Kinetics; conditions: SPR, GDP-bound HRAS wild-type protein vs GDP-bound KRAS wild-type protein
[2] = target: GDP-bound KRAS wild-type protein (Homo sapiens, UniProt P01116); test: Binding to KRAS by surface plasmon resonance (SPR), Single Cycle Kinetics; conditions: SPR Single Cycle Kinetics, GDP-bound KRAS wild-type protein, 1:1 binding model; read-out: KRAS KD
Sequence of GDP-bound KRAS wild-type protein (P01116 whole entry): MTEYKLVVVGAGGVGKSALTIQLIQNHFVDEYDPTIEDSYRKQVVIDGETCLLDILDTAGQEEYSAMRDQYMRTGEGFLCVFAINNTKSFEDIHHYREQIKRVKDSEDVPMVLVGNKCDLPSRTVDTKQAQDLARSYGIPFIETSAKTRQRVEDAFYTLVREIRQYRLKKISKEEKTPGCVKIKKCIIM

[3] = target: GDP-bound NRAS wild-type protein (Homo sapiens, UniProt P01111); test: Binding to NRAS by surface plasmon resonance (SPR), Single Cycle Kinetics; conditions: SPR, GDP-bound NRAS wild-type protein vs GDP-bound KRAS wild-type protein
Sequence of GDP-bound NRAS wild-type protein (P01111 whole entry): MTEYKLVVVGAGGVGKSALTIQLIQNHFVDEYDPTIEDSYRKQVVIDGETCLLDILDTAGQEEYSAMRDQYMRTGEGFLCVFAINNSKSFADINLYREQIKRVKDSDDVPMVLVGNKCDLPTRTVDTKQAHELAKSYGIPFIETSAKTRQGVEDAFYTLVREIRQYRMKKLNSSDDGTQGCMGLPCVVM

Sequence of GDP-bound HRAS wild-type protein (P01112 whole entry): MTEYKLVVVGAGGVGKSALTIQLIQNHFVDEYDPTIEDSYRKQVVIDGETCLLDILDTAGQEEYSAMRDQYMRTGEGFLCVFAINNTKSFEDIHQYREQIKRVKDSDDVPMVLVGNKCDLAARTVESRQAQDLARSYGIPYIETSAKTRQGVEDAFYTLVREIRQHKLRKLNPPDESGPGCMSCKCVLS

Row | Kd [2] | SMILES | HRAS/KRAS (ratio of KD value with respect to HRAS to KD value with respect to KRAS) [1] | NRAS/KRAS (ratio of KD value with respect to NRAS to KD value with respect to KRAS) [3]
1 | 18 nM | CC[C@H](C)[C@@H]1NC(=O)[C@H](CC(C)C)N(C)C(=O)C[C@@H](C(=O)N2CCOCC2)N(C)C(=O)[C@H](C2CCCC2)N(C)C(=O)C2(CCCCC2)NC(=O)[C@@H]2CCCN2C(=O)[C@H](CCc2cc(F)c(C(F)(F)F)c(F)c2)NC(=O)CN(C)C(=O)[C@H](Cc2ccc(C(F)(F)F)cc2)N2CCCCC[C@@H](C2=O)N(C)C(=O)CN(C)C1=O [PP0498] | B (a compound having 3 or more and less than 10 is denoted as B) | B (a compound having 3 or more and less than 10 is denoted as B)
2 | 1.1 nM | CC[C@H](C)[C@@H]1NC(=O)[C@H](CC(C)C)N(C)C(=O)C[C@@H](C(=O)N2CCOCC2)N(C)C(=O)[C@H](C2CCCC2)N(C)C(=O)C2(CC(F)(F)C2)NC(=O)[C@@H]2CCCN2C(=O)[C@H](CCc2cc(F)c(C(F)(F)F)c(F)c2)NC(=O)CN(C)C(=O)[C@H](Cc2ccc(C(F)(F)F)cc2)N2CCCCC[C@@H](C2=O)N(C)C(=O)CN(C)C1=O [PP0499] | B (a compound having 3 or more and less than 10 is denoted as B) | B (a compound having 3 or more and less than 10 is denoted as B)
3 | 10 nM | CC[C@H](C)[C@@H]1NC(=O)[C@H](CC(C)C)N(C)C(=O)C[C@@H](C(=O)N2CCOCC2)N(C)C(=O)[C@H](C2CCCCC2)N(C)C(=O)C2(CCCC2)NC(=O)[C@@H]2CCCN2C(=O)[C@H](CCc2cc(F)c(C(F)(F)F)c(F)c2)NC(=O)CN(C)C(=O)[C@H](Cc2ccc(C(F)(F)F)cc2)N2CCCCC[C@@H](C2=O)N(C)C(=O)CN(C)C1=O [PP0505] | B (a compound having 3 or more and less than 10 is denoted as B) | B (a compound having 3 or more and less than 10 is denoted as B)
4 | 25 nM | CC[C@H](C)[C@@H]1NC(=O)[C@H](CC(C)C)N(C)C(=O)C[C@@H](C(=O)N2CCOCC2)N(C)C(=O)[C@H](CC(F)(F)F)N(C)C(=O)C2(CCCC2)NC(=O)[C@@H]2CCCN2C(=O)[C@H](CCc2cc(F)c(C(F)(F)F)c(F)c2)NC(=O)CN(C)C(=O)[C@H](Cc2ccc(C(F)(F)F)cc2)N2CCCCC[C@@H](C2=O)N(C)C(=O)CN(C)C1=O [PP0506] | B (a compound having 3 or more and less than 10 is denoted as B) | B (a compound having 3 or more and less than 10 is denoted as B)
5 | 0.37 nM | CC[C@H](C)[C@@H]1NC(=O)[C@H](CC(C)C)N(C)C(=O)C[C@@H](C(=O)N(C)C)N(C)C(=O)[C@H](C2CCCC2)N(C)C(=O)C2(CCC2)NC(=O)[C@@H]2CCCN2C(=O)[C@H](CCc2cc(F)c(C(F)(F)F)c(F)c2)NC(=O)CN(C)C(=O)[C@H](Cc2ccc(C(F)(F)F)cc2)N2CCCCC[C@@H](C2=O)N(C)C(=O)CN(C)C1=O [PP0512] | B (a compound having 3 or more and less than 10 is denoted as B) | B (a compound having 3 or more and less than 10 is denoted as B)

More lines, now with the values behind:

Row | SMILES | Kd [2] | HRAS/KRAS (ratio of KD value with respect to HRAS to KD value with respect to KRAS) [1] | NRAS/KRAS (ratio of KD value with respect to NRAS to KD value with respect to KRAS) [3]
6 | CC[C@H](C)[C@@H]1NC(=O)[C@H](CC(C)C)N(C)C(=O)C[C@@H](C(=O)N2CCOCC2)N(C)C(=O)[C@H](C2CCCC2)N(C)C(=O)C2(CCOCC2)NC(=O)[C@@H]2CCCN2C(=O)[C@H](CCc2cc(F)c(C(F)(F)F)c(F)c2)NC(=O)CN(C)C(=O)[C@H](Cc2ccc(C(F)(F)F)cc2)N2CCCCC[C@@H](C2=O)N(C)C(=O)CN(C)C1=O [PP0502] | 12 nM | B (a compound having 3 or more and less than 10 is denoted as B) | A (a compound having 10 or more and less than 20 is denoted as A)
7 | CC[C@H](C)[C@@H]1NC(=O)[C@H](CC(C)C)N(C)C(=O)C[C@@H](C(=O)N2CCOCC2)N(C)C(=O)[C@H](C2CCCC2)N(C)C(=O)C(C)(C)NC(=O)[C@@H]2CCCN2C(=O)[C@H](CCc2cc(F)c(C(F)(F)F)c(F)c2)NC(=O)CN(C)C(=O)[C@H](Cc2ccc(C(F)(F)F)cc2)N2CCCCC[C@@H](C2=O)N(C)C(=O)CN(C)C1=O [PP0503] | 4.4 nM | B (a compound having 3 or more and less than 10 is denoted as B) | A (a compound having 10 or more and less than 20 is denoted as A)
8 | CC[C@H](C)[C@@H]1NC(=O)[C@H](CC(C)C)N(C)C(=O)C[C@@H](C(=O)N(C)C)N(C)C(=O)[C@H](C2CCCC2)N(C)C(=O)C2(CCCC2)NC(=O)[C@@H]2CCCN2C(=O)[C@H](CCc2cc(F)c(C(F)(F)F)c(F)c2)NC(=O)CN(C)C(=O)[C@H](Cc2ccc(C(F)(F)F)cc2)N2CCCCC[C@@H](C2=O)N(C)C(=O)CN(C)C1=O [PP0507] | 0.94 nM | B (a compound having 3 or more and less than 10 is denoted as B) | B (a compound having 3 or more and less than 10 is denoted as B)
9 | CC[C@H](C)[C@@H]1NC(=O)[C@H](CC(C)C)N(C)C(=O)C[C@@H](C(=O)N2CCCC2)N(C)C(=O)[C@H](C2CCCC2)N(C)C(=O)C2(CCCC2)NC(=O)[C@@H]2CCCN2C(=O)[C@H](CCc2cc(F)c(C(F)(F)F)c(F)c2)NC(=O)CN(C)C(=O)[C@H](Cc2ccc(C(F)(F)F)cc2)N2CCCCC[C@@H](C2=O)N(C)C(=O)CN(C)C1=O [PP0509] | 2.4 nM | B (a compound having 3 or more and less than 10 is denoted as B) | B (a compound having 3 or more and less than 10 is denoted as B)
10 | CC[C@H](C)[C@@H]1NC(=O)[C@H](CC(C)C)N(C)C(=O)C[C@@H](C(=O)N2CCCCC2)N(C)C(=O)[C@H](C2CCCC2)N(C)C(=O)C2(CCCC2)NC(=O)[C@@H]2CCCN2C(=O)[C@H](CCc2cc(F)c(C(F)(F)F)c(F)c2)NC(=O)CN(C)C(=O)[C@H](Cc2ccc(C(F)(F)F)cc2)N2CCCCC[C@@H](C2=O)N(C)C(=O)CN(C)C1=O [PP0510] | 12 nM | B (a compound having 3 or more and less than 10 is denoted as B) | B (a compound having 3 or more and less than 10 is denoted as B)
11 | CC[C@H](C)[C@@H]1NC(=O)[C@H](CC(C)C)N(CC)C(=O)C[C@@H](C(=O)N2CCOCC2)N(C)C(=O)[C@H](C2CCCC2)N(C)C(=O)C2(CCCC2)NC(=O)[C@@H]2CCCN2C(=O)[C@H](CCc2cc(F)c(C(F)(F)F)c(F)c2)NC(=O)CN(C)C(=O)[C@H](Cc2ccc(C(F)(F)F)cc2)N2CCCCC[C@@H](C2=O)N(C)C(=O)CN(C)C1=O [PP0513] | 6.2 nM | B (a compound having 3 or more and less than 10 is denoted as B) | B (a compound having 3 or more and less than 10 is denoted as B)
